Test results taken from patent US7115594B2, “Use of 2-methylene-19-nor-20(S)-1α,25-dihydroxyvitamin D3 to increase bone strength” (Wisconsin Alumni Research Foundation, priority 2000, dated 2006).
Entries after “also recorded” stand apart in the source; their conditions may differ.

Legend:
[1] = system: ovariectomized old female rats; assay: Strength of femurs and vertebrae to mechanical stress (animals of Table 1); type: in vivo; details: for Stress Value Femur / Stress Value Vertebra: ovariectomized rats
[2] = system: ovariectomized old female rats; assay: Treatment of ovariectomized old female rats (bone mass, serum calcium, femur ash); details: for BMC / BMC/Body Wt. / BMD / Femur Ash / Femur Ash (%) / Body Wt. / Serum CA: ovariectomized rats, mean ± SEM
[3] = molecular target: T1, porcine intestinal vitamin D receptor (Sus scrofa, UniProt A3RGC1); assay: Competitive binding of [3H]-1,25-(OH)2-D3 to the porcine intestinal vitamin D receptor; details: FIG. 1, standard 1,25-(OH)2D3
T1 construct: from tissue; host or cells: pig intestine (nuclear receptor preparation)
T1 sequence (A3RGC1 1-427): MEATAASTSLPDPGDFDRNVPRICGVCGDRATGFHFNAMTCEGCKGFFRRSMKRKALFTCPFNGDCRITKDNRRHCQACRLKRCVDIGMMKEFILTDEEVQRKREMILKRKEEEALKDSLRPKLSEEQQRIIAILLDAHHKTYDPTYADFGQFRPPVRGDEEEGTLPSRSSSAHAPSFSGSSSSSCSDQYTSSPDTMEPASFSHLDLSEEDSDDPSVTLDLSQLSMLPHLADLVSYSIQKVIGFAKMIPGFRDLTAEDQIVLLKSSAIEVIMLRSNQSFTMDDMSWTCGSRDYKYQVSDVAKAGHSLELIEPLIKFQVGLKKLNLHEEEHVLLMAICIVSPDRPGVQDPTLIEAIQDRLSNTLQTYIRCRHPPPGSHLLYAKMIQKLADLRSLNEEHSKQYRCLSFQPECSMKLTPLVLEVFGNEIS
Procedure: FIG. 1 is a graph illustrating the relative activity of 2-methylene-19-nor-20(S)-1α,25-dihydroxyvitamin D3, 2-methylene-19-nor-1α,25-dihydroxyvitamin D3 and 1α,25-dihydroxyvitamin D3 to compete for binding of [^3H]-1,25-(OH)2-D3 to the vitamin D pig intestinal nuclear receptor;
Competitive binding of the analogs to the porcine intestinal receptor was carried out by the method described by Dame et al (Biochemistry 25, 4523–4534, 1986).

[4] = system: intestinal calcium transport; assay: Intestinal calcium transport activity; type: in vivo; details: FIG. 2
Description: FIG. 2 is a graph illustrating the intestinal calcium transport activity of 2-methylene-19-nor-20(S)-1α,25-dihydroxyvitamin D3 as compared to 1α,25-dihydroxyvitamin D3;
The in vivo tests of increasing serum calcium of rats on a zero calcium diet provides an insight to […] or bone activity of 2MD.

Rhesus monkeys = assay: Single oral dose in Rhesus monkeys, serum calcium; type: in vivo; details: single oral dose of 27 μg; 10 Kg Rhesus monkey; preliminary
Description: FIGS. 7 and 8 snow a six week toxicity study in rats showing that 2MD appears safe at up to 30 pmol/day.
These and other tests indicate that primates will tolerate 2MD extremely well which may give a very large window between efficacy and the danger of hypercalcemia in man.

C=C1/C(=C\C=C2/CCC[C@]3(C)[C@@H]([C@H](C)CCCC(C)(C)O)CC[C@@H]23)C[C@@H](O)C[C@@H]1O [1,25(OH)2D3, 1α,25-dihydroxyvitamin D3]
Stress Value Femur ([1]; 250 pmol/day/5X/Week): 118.21 ± 19.85
Stress Value Vertebra ([1]; 250 pmol/day/5X/Week): 19.24 ± 5.66
Stress Value Femur ([1]; 500 pmol/d/3-5X/Week): 116.47 ± 16.20
Stress Value Vertebra ([1]; 500 pmol/d/3-5X/Week): 17.14 ± 0.52
BMC ([2]; 250 pmol/d 5X/Week, 8 weeks): 8.90 ± 0.40 g
BMC/Body Wt. ([2]; 250 pmol/d 5X/Week, 8 weeks): 22.4 ± 0.48 mg/g
BMD ([2]; 250 pmol/d 5X/Week, 8 weeks): 0.297 ± 0.001 g/cm^2
BMC ([2]; 250 pmol/d 5X/Week, 17 weeks): 9.6 ± 0.39 g
BMC/Body Wt. ([2]; 250 pmol/d 5X/Week, 17 weeks): 24.5 ± 0.87 mg/g
BMD ([2]; 250 pmol/d 5X/Week, 17 weeks): 0.308 ± 0.008 g/cm^2
BMC ([2]; 250 pmol/d 5X/Week, 30 weeks): 10.1 ± 0.30 g
BMC/Body Wt. ([2]; 250 pmol/d 5X/Week, 30 weeks): 26.1 ± 0.97 mg/g
BMD ([2]; 250 pmol/d 5X/Week, 30 weeks): 0.310 ± 0.007 g/cm^2
Femur Ash ([2]; 250 pmol/d 5X/Week, 30 weeks): 417 ± 23 mg
Femur Ash (%) ([2]; 250 pmol/d 5X/Week, 30 weeks): 60.8 ± 1.1%
BMC ([2]; 500 pmol/d 3X/Week, 17 weeks): 11.5 ± 0.25 g
BMC/Body Wt. ([2]; 500 pmol/d 3X/Week, 17 weeks): 27.6 ± 0.68 mg/g
BMD ([2]; 500 pmol/d 3X/Week, 17 weeks): 0.331 ± 0.008 g/cm^2
BMC ([2]; 500 pmol/d 3X/Week, 30 weeks): 11.8 ± 0.23 g
BMC/Body Wt. ([2]; 500 pmol/d 3X/Week, 30 weeks): 28.0 ± 0.69 mg/g
BMD ([2]; 500 pmol/d 3X/Week, 30 weeks): 0.328 ± 0.008 g/cm^2
Femur Ash ([2]; 500 pmol/d 3X/Week, 30 weeks): 478 ± 7.5 mg
Femur Ash (%) ([2]; 500 pmol/d 3X/Week, 30 weeks): 61.4 ± 1.3%
BMC ([2]; 500 pmol/d 5X/Week, 8 weeks): 10.2 ± 0.40 g
BMC/Body Wt. ([2]; 500 pmol/d 5X/Week, 8 weeks): 26.3 ± 0.57 mg/g
BMD ([2]; 500 pmol/d 5X/Week, 8 weeks): 0.312 ± 0.005 g/cm^2

C=C1[C@H](O)CC(=C/C=C2\CCC[C@]3(C)[C@@H]([C@@H](C)CCCC(C)(C)O)CC[C@@H]23)C[C@H]1O [2MD, 2-methylene-19-nor-20(S)-1α,25-dihydroxyvitamin D3]
binding to the vitamin D receptor compared to 1,25-(OH)2D3 [3]: about as active as 1,25(OH)2D3
binding to the vitamin D receptor compared to 1,25-(OH)2D3 ([3]; listed as 2-methylene-20(S)-19-nor-1,25-(OH)2D3): bound equally well
activity in stimulating intestinal calcium transport compared to 1,25(OH)2D3 [4]: activity similar to that of 1,25-dihydroxyvitamin D3; also recorded: approximately equal that of 1,25-(OH)2D3
breaking strength in the femurs (cortical strength) ([1]; animals shown in Table 1): increases breaking strength in the femurs
crushing strength in the vertebra (trabecular strength) ([1]; animals shown in Table 1): increases
Stress Value Femur ([1]; 32 pmol/d/2X/Week): 134.84 ± 14.12
Stress Value Vertebra ([1]; 32 pmol/d/2X/Week): 23.93 ± 6.59
Stress Value Femur ([1]; 65 pmol/d/1X/Week): 133.71 ± 14.06
Stress Value Vertebra ([1]; 65 pmol/d/1X/Week): 17.07 ± 5.73
elevation of serum calcium concentration (Rhesus monkeys): does not cause significant elevation of serum calcium concentration; also recorded: without appreciably elevating serum calcium concentration
restoring bone of ovariectomized, old female rats ([2]; 32 pmol given 2 times per week, compared to 1,25(OH)2D3 at high doses 3 times per week): very effective in restoring bone
building bone mass in ovariectomized rats ([2]; compared to the native hormone / sham-operated controls, FIGS. 4 and 6): extraordinarily effective in building bone mass; also recorded: causes an increase in bone mass above that of sham-operated controls
serum calcium concentration in ovariectomized rats ([2]; dosage levels used in the bone mass study): without increasing serum calcium concentration; also recorded: no change in serum calcium
% ash in the femur ([2]; ovariectomized old female rats): increases % ash in the femur; also recorded: percent ash is unexpectedly increased further
BMC ([2]; 32 pmol/d 2X/Week, 8 weeks): 8.4 ± 0.13 g
BMC/Body Wt. ([2]; 32 pmol/d 2X/Week, 8 weeks): 22.4 ± 0.64 mg/g
BMD ([2]; 32 pmol/d 2X/Week, 8 weeks): 0.295 ± 0.009 g/cm^2
Body Wt. ([2]; 32 pmol/d 2X/Week, 8 weeks): 375 ± 8.2 g
BMC ([2]; 32 pmol/d 2X/Week, 17 weeks): 9.7 ± 0.19 g
BMC/Body Wt. ([2]; 32 pmol/d 2X/Week, 17 weeks): 26.2 ± 0.92 mg/g
BMD ([2]; 32 pmol/d 2X/Week, 17 weeks): 0.313 ± 0.011 g/cm^2
Body Wt. ([2]; 32 pmol/d 2X/Week, 17 weeks): 373 ± 11.0 g
BMC ([2]; 32 pmol/d 2X/Week, 30 weeks): 11.6 ± 0.40 g
BMC/Body Wt. ([2]; 32 pmol/d 2X/Week, 30 weeks): 33.4 ± 1.60 mg/g
BMD ([2]; 32 pmol/d 2X/Week, 30 weeks): 0.331 ± 0.006 g/cm^2
Body Wt. ([2]; 32 pmol/d 2X/Week, 30 weeks): 346 ± 11.0 g
Femur Ash ([2]; 32 pmol/d 2X/Week, 30 weeks): 462 ± 21.4 mg
Femur Ash (%) ([2]; 32 pmol/d 2X/Week, 30 weeks): 65.6 ± 1.7%
Serum CA ([2]; 32 pmol/d 2X/Week, 30 weeks): 10.8 ± 0.22 mg/dL
BMC ([2]; 65 pmol/d 1X/Week, 8 weeks): 8.5 ± 0.23 g
BMC/Body Wt. ([2]; 65 pmol/d 1X/Week, 8 weeks): 22.2 ± 0.53 mg/g
BMD ([2]; 65 pmol/d 1X/Week, 8 weeks): 0.293 ± 0.004 g/cm^2
Body Wt. ([2]; 65 pmol/d 1X/Week, 8 weeks): 408 ± 10.5 g
BMC ([2]; 65 pmol/d 1X/Week, 17 weeks): 9.6 ± 0.24 g
BMC/Body Wt. ([2]; 65 pmol/d 1X/Week, 17 weeks): 24.0 ± 0.80 mg/g
BMD ([2]; 65 pmol/d 1X/Week, 17 weeks): 0.312 ± 0.005 g/cm^2
Body Wt. ([2]; 65 pmol/d 1X/Week, 17 weeks): 402 ± 11.3 g
BMC ([2]; 65 pmol/d 1X/Week, 30 weeks): 10.2 ± 0.33 g
BMC/Body Wt. ([2]; 65 pmol/d 1X/Week, 30 weeks): 26.0 ± 1.10 mg/g
BMD ([2]; 65 pmol/d 1X/Week, 30 weeks): 0.310 ± 0.009 g/cm^2
Body Wt. ([2]; 65 pmol/d 1X/Week, 30 weeks): 393 ± 15.0 g
Femur Ash ([2]; 65 pmol/d 1X/Week, 30 weeks): 443 ± 11.6 mg
Femur Ash (%) ([2]; 65 pmol/d 1X/Week, 30 weeks): 62.5 ± 0.57%
Serum CA ([2]; 65 pmol/d 1X/Week, 30 weeks): 10.7 ± 0.46 mg/dL
